Experimental findings from ChEMBL document CHEMBL1129045, “Potential antitumor agents. 24. Synthesis and pharmacological behavior of imidazo[2,1-b]thiazole guanylhydrazones bearing at least one chlorine” (J Med Chem, 1996) are described below.

In data set [1] the test system is HeLa. Nature of the data set: Compound was tested in vitro for cytotoxicity against HeLa cells. The data set is classed as functional, cell-based, Homo sapiens.
The subject of data set [2] is Mus musculus. Nature of the data set: Compound was tested in vivo antitumor activity against Ehrlich ascites in mice at 12.5 mg/kg ip. It is filed as functional. To be noted: route intraperitoneal.
Data set [3] is filed under the species Cavia porcellus. In words: Positive inotropic activity in isolated guinea pig atria, Concentration producing 50% of the maximal effect. The data set is classed as functional.
Data set [4] relates to Mus musculus. In words: Compound was tested in vivo antitumor activity against Ehrlich ascites in mice at 50 mg/kg ip. The data set is classed as functional. To be noted: route intraperitoneal.
Data set [5] can be described thus: Compound was tested for initial contractile force 0.4+/-0.1 g (% deltabase line value).
In data set [6] the test system is Mus musculus. Nature of the data set: Compound was tested in vivo antitumor activity against Ehrlich ascites in mice at 25 mg/kg ip. It is filed as functional. To be noted: route intraperitoneal.
In data set [7] the test system is Mus musculus. Nature of the data set: Compound was tested in vivo antitumor activity against Ehrlich ascites in mice at 100 mg/kg ip. The data set is classed as functional. To be noted: route intraperitoneal.
Data set [8] relates to Mus musculus. In words: Compound was tested in vivo antitumor activity against Ehrlich ascites in mice at 1 mg/kg ip. The data set is classed as functional. The note with it: route intraperitoneal.
Data set [9] deals with Mus musculus. Nature of the data set: Compound was tested in vivo antitumor activity against Ehrlich ascites in mice at 6.25 mg/kg ip. The note with it: route intraperitoneal. The data set is classed as functional.
Data set [10] in a line: Compound was tested for concentration to obtain Emax (microg).

Values after ≈ are worked out from the molar mass of the structure shown.

Usually IC50 stands for the midpoint of a concentration-inhibition curve. A lower IC50 goes with inhibition by little substance. Broadly, the T/C is the ratio of treated to control. On to `N=C(N)N/N=C/c1c(-c2ccc(Cl)c(Cl)c2Cl)nc2sccn12`, for which, in data set [1], the IC50 came to 2 µg/mL (≈ 5.16 µM). The molecule further returned a T/C in [2] of 180%.

The molecule `Cc1cn2c(/C=N/N=C(N)N)c(Cl)nc2s1` came in with a 50% inhibitory concentration (IC50) in data set [1] of over 10 µg/mL. Also, the EC50 in [3] came out at 0.016 mg. Also, the T/C in data set [4] came out at 106%. Moreover, the Delta in [5] is reported as 146%.

In the case of `Cc1sc2nc(Cl)c(/C=N/N=C(N)N)n2c1C`, the IC50 in data set [1] was over 10 µg/mL. The T/C in [4] was found to be 100%. The same molecule registered a Delta in data set [5] of 137%.

On to `Cc1csc2nc(-c3ccc(Cl)cc3)c(/C=N/N=C(N)N)n12`, for which the IC50 in [1] amounted to 2 µg/mL (≈ 6.01 µM). The same molecule had a T/C in data set [6] of 133%. Besides, in data set [5], the Delta is 115%.

`N=C(N)N/N=C/c1c(-c2ccc(Cl)c(Cl)c2Cl)nc2n1CCS2` displayed an IC50 in data set [1] of 2.5 µg/mL (≈ 6.42 µM). This molecule returned a T/C in data set [4] of 166%. In data set [5], this molecule yielded a Delta of 111%.

Take `Cc1csc2nc(Cl)c(/C=N/N=C(N)N)n12`: the IC50 in data set [1] is over 10 µg/mL. The T/C in [4] stood at 106%. Also, the Delta in data set [5] was 134%.

The molecule `N=C(N)N/N=C/c1c(Cl)nc2sc(Cl)cn12` displayed an IC50 in data set [1] of over 10 µg/mL. Besides, in data set [7], the T/C is given as 120%. Also, the Delta in [5] amounted to 135%.

In turn, `O=c1[nH]cc(F)c(=O)[nH]1` [FLUOROURACIL] had an IC50 in data set [1] of 6 µg/mL (≈ 46.1 µM). In data set [7], this molecule displayed a T/C of 180%.

Molecule `N=C(N)N/N=C/c1c(-c2ccc(Cl)cc2Cl)nc2sccn12` displayed an IC50 in [1] of 2.5 µg/mL (≈ 7.08 µM). Moreover, the T/C in [6] is 146%. Moreover, the Delta in data set [5] is on record as 100%.

For `Cc1sc2nc(-c3ccc(Cl)cc3)c(/C=N/N=C(N)N)n2c1C`, the IC50 in data set [1] is 2 µg/mL (≈ 5.77 µM). Further, the T/C in data set [2] worked out at 140%. The molecule further yielded a Delta in [5] of 118%.

As to `COc1cccc2c1C(=O)c1c(O)c3c(c(O)c1C2=O)C[C@@](O)(C(=O)CO)C[C@@H]3O[C@H]1C[C@H](N)[C@H](O)[C@H](C)O1` [DOXORUBICIN], the T/C in [8] was determined as 200%. The same molecule registered an IC50 in data set [1] of 0.005 µg/mL (≈ 0.0092 µM).

In the case of `Cc1cn2c(/C=N/N=C(N)N)c(-c3ccc(Cl)cc3)nc2s1`, the IC50 in data set [1] is 1.5 µg/mL (≈ 4.51 µM). For the same molecule, in data set [9], the T/C was 166%. Besides, in [5], the Delta is listed as 106%.

Regarding `COc1cc([S+](C)[O-])ccc1-c1nc2ncccc2[nH]1` (configuration not stated) [SULMAZOLE], in data set [5], the Delta came to 163%. The molecule further showed an Emax in data set [10] of 350 µg.

For `N=C(N)N/N=C/c1c(-c2ccc(Cl)cc2Cl)nc2n1CCS2`, in [1], the IC50 is 5 µg/mL (≈ 14.1 µM). The same molecule gave a T/C in data set [4] of 200%. For the same molecule, the Delta in data set [5] stood at 119%.

In the case of `N=C(N)N/N=C/c1c(-c2ccc(Cl)cc2)nc2sc(Cl)cn12`, in data set [1], the IC50 is 0.6 µg/mL (≈ 1.7 µM). In [2], this molecule showed a T/C of 166%. In data set [5], this molecule returned a Delta of 100%.
